According to paper PMC12069442 (Frontiers in Pharmacology, 2025):

Legend:
[1] = target: CYP3A4.1 (Homo sapiens, UniProt P08684); assay: Ziprasidone catalysis by recombinant CYP3A4.1
Method: (§1) Following the incubation, 400 μL of ACN and 20 μL of IS were added to the mixture. The sample was then vortexed and centrifuged, and the resulting supernatant was collected for analysis via LC-MS/MS.

[2] = target: CYP3A4.3 (Homo sapiens, UniProt P08684, M445T); assay: Ziprasidone catalysis by recombinant CYP3A4.3
Chain of CYP3A4.3 (P08684 whole entry M445T): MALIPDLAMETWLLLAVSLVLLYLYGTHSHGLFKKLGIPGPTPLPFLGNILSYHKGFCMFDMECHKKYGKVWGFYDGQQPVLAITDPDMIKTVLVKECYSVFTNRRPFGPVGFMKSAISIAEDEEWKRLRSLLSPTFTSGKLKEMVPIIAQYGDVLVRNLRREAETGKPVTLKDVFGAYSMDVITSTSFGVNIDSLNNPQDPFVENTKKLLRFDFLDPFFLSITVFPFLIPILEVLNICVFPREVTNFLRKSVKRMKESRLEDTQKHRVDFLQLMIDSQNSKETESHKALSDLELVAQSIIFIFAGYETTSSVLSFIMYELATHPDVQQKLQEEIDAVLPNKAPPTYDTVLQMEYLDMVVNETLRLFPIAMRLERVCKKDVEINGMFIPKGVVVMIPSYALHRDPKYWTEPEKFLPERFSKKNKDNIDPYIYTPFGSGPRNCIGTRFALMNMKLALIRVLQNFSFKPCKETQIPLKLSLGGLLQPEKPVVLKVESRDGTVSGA
Method: as §1

[3] = target: CYP3A4.5 (Homo sapiens, UniProt P08684, P218R); assay: Ziprasidone catalysis by recombinant CYP3A4.5
Chain of CYP3A4.5 (P08684 whole entry P218R): as the sequence (P08684 whole entry M445T) above, with P218R, T445M counted along it
Method: as §1

[4] = target: CYP3A4.8 (Homo sapiens, UniProt P08684, R130Q); assay: Ziprasidone catalysis by recombinant CYP3A4.8
Chain of CYP3A4.8 (P08684 whole entry R130Q): as the sequence (P08684 whole entry M445T) above, with R130Q, T445M counted along it
Method: as §1

[5] = target: CYP3A4.9 (Homo sapiens, UniProt P08684, V170I); assay: Ziprasidone catalysis by recombinant CYP3A4.9
Chain of CYP3A4.9 (P08684 whole entry V170I): as the sequence (P08684 whole entry M445T) above, with V170I, T445M counted along it
Method: as §1

[6] = target: CYP3A4.10 (Homo sapiens, UniProt P08684, D174H); assay: Ziprasidone catalysis by recombinant CYP3A4.10
Chain of CYP3A4.10 (P08684 whole entry D174H): as the sequence (P08684 whole entry M445T) above, with D174H, T445M counted along it
Method: as §1

[7] = target: CYP3A4.12 (Homo sapiens, UniProt P08684, L373F); assay: Ziprasidone catalysis by recombinant CYP3A4.12
Chain of CYP3A4.12 (P08684 whole entry L373F): as the sequence (P08684 whole entry M445T) above, with L373F, T445M counted along it
Method: as §1

[8] = target: CYP3A4.13 (Homo sapiens, UniProt P08684, P416L); assay: Ziprasidone catalysis by recombinant CYP3A4.13
Chain of CYP3A4.13 (P08684 whole entry P416L): as the sequence (P08684 whole entry M445T) above, with P416L, T445M counted along it
Method: as §1

[9] = target: CYP3A4.14 (Homo sapiens, UniProt P08684, L15P); assay: Ziprasidone catalysis by recombinant CYP3A4.14
Chain of CYP3A4.14 (P08684 whole entry L15P): as the sequence (P08684 whole entry M445T) above, with L15P, T445M counted along it
Method: as §1

[10] = target: CYP3A4.15 (Homo sapiens, UniProt P08684, R162Q); assay: Ziprasidone catalysis by recombinant CYP3A4.15
Chain of CYP3A4.15 (P08684 whole entry R162Q): as the sequence (P08684 whole entry M445T) above, with R162Q, T445M counted along it
Method: as §1

[11] = target: CYP3A4.16 (Homo sapiens, UniProt P08684, T185S); assay: Ziprasidone catalysis by recombinant CYP3A4.16; conditions: CYP3A4.16, CL = Vmax/Km
Chain of CYP3A4.16 (P08684 whole entry T185S): as the sequence (P08684 whole entry M445T) above, with T185S, T445M counted along it
Method: as §1

[12] = target: CYP3A4.18 (Homo sapiens, UniProt P08684, L293P); assay: Ziprasidone catalysis by recombinant CYP3A4.18
Chain of CYP3A4.18 (P08684 whole entry L293P): as the sequence (P08684 whole entry M445T) above, with L293P, T445M counted along it
Method: as §1

[13] = target: CYP3A4.19 (Homo sapiens, UniProt P08684, P467S); assay: Ziprasidone catalysis by recombinant CYP3A4.19
Chain of CYP3A4.19 (P08684 whole entry P467S): as the sequence (P08684 whole entry M445T) above, with T445M, P467S counted along it
Method: as §1

[14] = target: CYP3A4.23 (Homo sapiens, UniProt P08684, R162W); assay: Ziprasidone catalysis by recombinant CYP3A4.23
Chain of CYP3A4.23 (P08684 whole entry R162W): as the sequence (P08684 whole entry M445T) above, with R162W, T445M counted along it
Method: as §1

[15] = target: CYP3A4.24 (Homo sapiens, UniProt P08684, Q200H); assay: Ziprasidone catalysis by recombinant CYP3A4.24; conditions: CYP3A4.24, CL = Vmax/Km
Chain of CYP3A4.24 (P08684 whole entry Q200H): as the sequence (P08684 whole entry M445T) above, with Q200H, T445M counted along it
Method: as §1

[16] = target: CYP3A4.28 (Homo sapiens, UniProt P08684, L22V); assay: Ziprasidone catalysis by recombinant CYP3A4.28
Chain of CYP3A4.28 (P08684 whole entry L22V): as the sequence (P08684 whole entry M445T) above, with L22V, T445M counted along it
Method: as §1

[17] = target: CYP3A4.31 (Homo sapiens, UniProt P08684, H324Q); assay: Ziprasidone catalysis by recombinant CYP3A4.31
Chain of CYP3A4.31 (P08684 whole entry H324Q): as the sequence (P08684 whole entry M445T) above, with H324Q, T445M counted along it
Method: as §1

[18] = target: CYP3A4.32 (Homo sapiens, UniProt P08684, I335T); assay: Ziprasidone catalysis by recombinant CYP3A4.32
Chain of CYP3A4.32 (P08684 whole entry I335T): as the sequence (P08684 whole entry M445T) above, with I335T, T445M counted along it
Method: as §1

[19] = target: CYP3A4.33 (Homo sapiens, UniProt P08684, A370S); assay: Ziprasidone catalysis by recombinant CYP3A4.33; conditions: CYP3A4.33, CL = Vmax/Km
Chain of CYP3A4.33 (P08684 whole entry A370S): as the sequence (P08684 whole entry M445T) above, with A370S, T445M counted along it
Method: as §1

[20] = target: CYP3A4.34 (Homo sapiens, UniProt P08684, I427V); assay: Ziprasidone catalysis by recombinant CYP3A4.34; conditions: CYP3A4.34, CL = Vmax/Km
Chain of CYP3A4.34 (P08684 whole entry I427V): as the sequence (P08684 whole entry M445T) above, with I427V, T445M counted along it
Method: as §1

[21] = parameters: method as in Beedham et al., 2003; conditions: humans; ref Beedham et al., 2003; cited from earlier work
[22] = Rat pharmacokinetic study of ziprasidone and ziprasidone sulfoxide with resveratrol or quercetin; conditions: male, Sprague-Dawley, plasma, po, 15 mg/kg, rats, n=6; for CL/F: CLz/F; for Vd/F: Vz/F; for half-life: t1/2z
Method: To minimize potential confounding effects of hormonal fluctuations, this study exclusively utilized male Sprague-Dawley (SD) rats (340 ± 15 g) obtained from Vital River Laboratories (Beijing, China).
Following a 7-day acclimatization period under controlled conditions (temperature: 20°C–25°C; humidity: 50%–65%; 12h/12 h light/dark cycle), 18 rats were fasted for 12 h (water ad libitum) and randomly divided into three treatment groups (n = 6 per group).
Serial blood samples (50 μL) were collected at predetermined time points (0, 1, 2, 4, 6, 8, 10, 12, 24, and 48 h) and processed with 150 μL acetonitrile and 20 μL midazolam IS (500 ng/mL). After vortex-mixing (2 min) and centrifugation (10,075 × g, 10 min), the supernatant was subjected to LC-MS/MS analysis. […] Calibration curves were established over 1–1,000 ng/mL for both analytes, with samples processed identically to study specimens.
Essential pharmacokinetic parameters were determined using a non-compartmental model through Drug and Statistics (DAS) software version 3.0. For the polymorphism experiment results, one-way ANOVA was performed in GraphPad Prism 8.0, while pharmacokinetic data were assessed using an unpaired t-test, with a p-value below 0.05 deemed statistically significant.

[23] = ziprasidone 15 mg/kg oral + quercetin 50 mg/kg i.g.
[24] = ziprasidone 15 mg/kg oral + resveratrol 50 mg/kg i.g.
[25] = ziprasidone 15 mg/kg oral, control (corn oil)

Chain of CYP3A4.1 (P08684 whole entry): as the sequence (P08684 whole entry M445T) above, with T445M counted along it

**Q.** With `O=C1Cc2cc(CCN3CCN(c4nsc5ccccc45)CC3)c(Cl)cc2N1` [ziprasidone, Ziprasidone] as the molecule, how does the CL ([1]; CYP3A4.1, CL = Vmax/Km) read?
**A.** 6.07 ± 1.19 µL/min/pmol

**Q.** And the “% of CYP3A4.1” value ([1]; CYP3A4.1, relative clearance)?
**A.** 100.00 ± 19.66%

**Q.** And the CL ([2]; CYP3A4.3, CL = Vmax/Km)?
**A.** 9.30 ± 0.85 µL/min/pmol

**Q.** And the “% of CYP3A4.1” value ([2]; CYP3A4.3, relative clearance)?
**A.** 153.26 ± 14.08 %

**Q.** And the CL ([3]; CYP3A4.5, CL = Vmax/Km)?
**A.** 4.65 ± 0.52 µL/min/pmol

**Q.** What about the “% of CYP3A4.1” value ([3]; CYP3A4.5, relative clearance) of the same molecule?
**A.** 76.73 ± 8.59%

**Q.** What about the CL ([4]; CYP3A4.8, CL = Vmax/Km) of the same molecule?
**A.** 5.71 ± 0.42 µL/min/pmol

**Q.** And the “% of CYP3A4.1” value ([4]; CYP3A4.8, relative clearance)?
**A.** 94.14 ± 6.86%

**Q.** What about the CL ([5]; CYP3A4.9, CL = Vmax/Km) of the same molecule?
**A.** 7.92 ± 0.36 µL/min/pmol

**Q.** And the “% of CYP3A4.1” value ([5]; CYP3A4.9, relative clearance)?
**A.** 130.65 ± 6.00%

**Q.** And the CL ([6]; CYP3A4.10, CL = Vmax/Km)?
**A.** 4.52 ± 0.35 µL/min/pmol

**Q.** What about the “% of CYP3A4.1” value ([6]; CYP3A4.10, relative clearance) of the same molecule?
**A.** 74.60 ± 5.81%

**Q.** And the CL ([7]; CYP3A4.12, CL = Vmax/Km)?
**A.** 5.72 ± 0.87 µL/min/pmol

**Q.** What about the “% of CYP3A4.1” value ([7]; CYP3A4.12, relative clearance) of the same molecule?
**A.** 94.29 ± 14.33%

**Q.** And the CL ([8]; CYP3A4.13, CL = Vmax/Km)?
**A.** 5.60 ± 0.90 µL/min/pmol

**Q.** What about the “% of CYP3A4.1” value ([8]; CYP3A4.13, relative clearance) of the same molecule?
**A.** 92.30 ± 14.84%

**Q.** What about the CL ([9]; CYP3A4.14, CL = Vmax/Km) of the same molecule?
**A.** 6.64 ± 0.48 µL/min/pmol

**Q.** And the “% of CYP3A4.1” value ([9]; CYP3A4.14, relative clearance)?
**A.** 109.41 ± 7.88%

**Q.** And the CL ([10]; CYP3A4.15, CL = Vmax/Km)?
**A.** 9.53 ± 1.38 µL/min/pmol

**Q.** What about the “% of CYP3A4.1” value ([10]; CYP3A4.15, relative clearance) of the same molecule?
**A.** 157.07 ± 22.67 %

**Q.** And the CL [11]?
**A.** 6.79 ± 1.26 µL/min/pmol

**Q.** And the CL ([12]; CYP3A4.18, CL = Vmax/Km)?
**A.** 6.56 ± 1.12 µL/min/pmol

**Q.** What about the “% of CYP3A4.1” value ([12]; CYP3A4.18, relative clearance) of the same molecule?
**A.** 89.27 ± 15.28%

**Q.** What about the CL ([13]; CYP3A4.19, CL = Vmax/Km) of the same molecule?
**A.** 6.19 ± 0.53 µL/min/pmol

**Q.** What about the “% of CYP3A4.1” value ([13]; CYP3A4.19, relative clearance) of the same molecule?
**A.** 84.26 ± 7.20%

**Q.** And the CL ([14]; CYP3A4.23, CL = Vmax/Km)?
**A.** 6.11 ± 0.83 µL/min/pmol

**Q.** What about the “% of CYP3A4.1” value ([14]; CYP3A4.23, relative clearance) of the same molecule?
**A.** 83.13 ± 11.26%

**Q.** What about the CL [15] of the same molecule?
**A.** 3.46 ± 0.67 µL/min/pmol

**Q.** What about the CL ([16]; CYP3A4.28, CL = Vmax/Km) of the same molecule?
**A.** 5.69 ± 1.01 µL/min/pmol

**Q.** And the “% of CYP3A4.1” value ([16]; CYP3A4.28, relative clearance)?
**A.** 77.40 ± 13.81%

**Q.** What about the CL ([17]; CYP3A4.31, CL = Vmax/Km) of the same molecule?
**A.** 4.08 ± 0.83 µL/min/pmol

**Q.** What about the “% of CYP3A4.1” value ([17]; CYP3A4.31, relative clearance) of the same molecule?
**A.** 55.46 ± 11.30 %

**Q.** What about the CL ([18]; CYP3A4.32, CL = Vmax/Km) of the same molecule?
**A.** 7.66 ± 1.55 µL/min/pmol

**Q.** And the “% of CYP3A4.1” value ([18]; CYP3A4.32, relative clearance)?
**A.** 104.25 ± 21.13%

**Q.** And the CL [19]?
**A.** 14.74 ± 0.74 µL/min/pmol

**Q.** And the CL [20]?
**A.** 4.65 ± 0.66 µL/min/pmol

**Q.** What about the “administered dose excreted unchanged” value [21] of the same molecule?
**A.** less than 5%

**Q.** What about the AUC(0-t) [22, 23] of the same molecule?
**A.** 9390 ng·h/mL

**Q.** What about the AUC(0-t) [22, 24] of the same molecule?
**A.** 6760 ng·h/mL

**Q.** What about the AUC(0-t) [22, 25] of the same molecule?
**A.** 6610 ng·h/mL

**Q.** What about the AUC(0-inf) [22, 23] of the same molecule?
**A.** 9390 ng·h/mL

**Q.** And the AUC(0-inf) [22, 24]?
**A.** 6760 ng·h/mL

**Q.** What about the AUC(0-inf) [22, 25] of the same molecule?
**A.** 6980 ng·h/mL

**Q.** What about the CL/F [22, 23] of the same molecule?
**A.** 94.2 mL/min/kg

**Q.** And the CL/F [22, 24]?
**A.** 150 mL/min/kg

**Q.** And the CL/F [22, 25]?
**A.** 43.8 mL/min/kg

**Q.** What about the Cmax [22, 23] of the same molecule?
**A.** 1620 ng/mL

**Q.** What about the Cmax [22, 24] of the same molecule?
**A.** 1160 ng/mL

**Q.** What about the Cmax [22, 25] of the same molecule?
**A.** 963 ± 367 ng/mL

**Q.** What about the Tmax [22, 23] of the same molecule?
**A.** 4 ± 1.79 h

**Q.** And the Tmax [22, 24]?
**A.** 4.33 ± 2.66 h

**Q.** What about the Tmax [22, 25] of the same molecule?
**A.** 4 ± 2.19 h

**Q.** What about the Vd/F [22, 23] of the same molecule?
**A.** 33.3 ± 22.1 L/kg

**Q.** What about the Vd/F [22, 24] of the same molecule?
**A.** 56.1 ± 42.7 L/kg

**Q.** And the Vd/F [22, 25]?
**A.** 24.3 ± 19.1 L/kg

**Q.** And the half-life [22, 23]?
**A.** 3.79 ± 2.11 h

**Q.** And the half-life [22, 24]?
**A.** 4.06 ± 1.52 h

**Q.** What about the half-life [22, 25] of the same molecule?
**A.** 8.64 ± 10.8 h
